US20240043557A1, “A PLATFORM TO OBTAIN MONOCLONAL ANTIBODIES DIRECTED AGAINST PROCESSED TUMOR-SPECIFIC ANTIGENS” (Mediterranea Theranostic srl, priority 2020, published 2024)

Key:
[1] = biological target: T1, ADAM10 (Mus musculus, UniProt O35598); assay: Western blot of Trop-2 processing in MTE 4-14/Trop-2 transfectants upon ADAM10 inhibition; assay type: cell-based, murine; settings: for effect on Trop-2 processing: MTE 4-14/Trop-2 transfectants, WB; for minimum concentration found to be effective in inhibiting Trop-2 cleavage: concentration used, GM6001 24 hours, G1254023X two doses every 24 hours for 48 hours; for concentration found effective (up to): inhibition of Trop-2 cleavage
T1 construct: endogenous in cells; host or cells: MTE 4-14 (transformed murine thymus cells) transfected with Trop-2
T1 sequence (O35598 215-749): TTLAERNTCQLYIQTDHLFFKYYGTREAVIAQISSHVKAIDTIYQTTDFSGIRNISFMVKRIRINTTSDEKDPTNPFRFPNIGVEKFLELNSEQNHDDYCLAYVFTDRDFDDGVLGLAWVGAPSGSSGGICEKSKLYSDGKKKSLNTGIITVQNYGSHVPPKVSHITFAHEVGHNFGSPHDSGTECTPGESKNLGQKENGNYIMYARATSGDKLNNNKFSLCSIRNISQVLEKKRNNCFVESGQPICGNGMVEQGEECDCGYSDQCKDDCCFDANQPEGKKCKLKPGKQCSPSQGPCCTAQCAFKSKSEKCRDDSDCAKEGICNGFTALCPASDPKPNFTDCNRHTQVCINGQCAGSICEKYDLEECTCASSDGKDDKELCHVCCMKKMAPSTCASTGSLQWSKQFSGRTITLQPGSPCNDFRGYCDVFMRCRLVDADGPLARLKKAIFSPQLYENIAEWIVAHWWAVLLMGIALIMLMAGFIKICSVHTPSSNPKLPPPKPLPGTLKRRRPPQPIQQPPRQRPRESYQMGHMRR
Procedure: ADAM 10 activity was inhibited in the MTE 4-14/Trop-2 transfectants by treatment with chemical inhibitors or mRNA silencing, and the effect on Trop-2 processing and on Trop-2-dependent cell growth was evaluated.
A. WB analysis following treatment with the broad-spectrum metalloprotease inhibitor GM6001 or with the specific ADAM10 inhibitor G1254023X or ADAM10 siRNA silencing, as indicated. […] T2-p: processed Trop-2; na: native form; pr: processed form.
Western blotting was performed as described (El Sewedy, Fomaro et al. 1998). Tumors from experimental animals were rapidly frozen upon surgical removal and stored at −80° C. Frozen samples were quickly thawed and homogenized with a Dounce homogenizer. Cleared homogenates of tumors and cultured cell lysates were analyzed by SDS-PAGE and transferred to nitrocellulose filters. Filters were hybridized with anti-human Trop-2 (affinity-purified polyclonal rabbit antiserum) or anti-ADAM10 antibodies.
Cells were treated with ADAM10 inhibitors for 24 hours at the minimum concentration found to be effective in inhibiting Trop-2 cleavage, then assayed as indicated. The GM6001 metalloprotease family inhibitor (Calbiochem) was dissolved in DMSO and used at 6.5-13 μM for 24 hours; up to 50 μM GM6001 were found effective. The G1254023X selective ADAM10 inhibitor, dissolved in DMSO, was kindly provided by Dr. A. Ludwig. Cells received two doses (10 μM) every 24 hours for 48 hours; up to 20 μM G1254023X were found effective. Control cells received vehicle alone.
(§1) Complementary strategies were utilized for siRNA design. Briefly, Tuschl′ criteria were applied, i.e. position in the mRNA, GC content, base composition and flanking sequences (Elbashir, Harborth et al. 2001). Invitrogen (maidesigner.invitrogen.com/maiexpress/) provides a proprietary algorithm that performs a statistical analysis of the target sequence, based on sequence composition, nucleotide content and thermodynamic properties, and compares candidates with validated siRNA sequences. The Whitehead Institute web site (jura.wi.mit.edu/bioc/siRNAext/) combines Tuschl′ criteria with predictions of binding energies for both sense and antisense siRNAs and with BLAST filtering of cross-hybridizing sequences. The Sonnhammer procedure (sonnhammer.cgb.ki.se/siSearch/) performs data mining (siSearch) on validated siRNA databanks, using motif rules and energy parameters. siRNA were synthesized that were identified by more than one method or considered optimal by any of the procedures above. Annealed oligos were subcloned into the pSUPER vector, kindly provided by Dr. R. Bernard (Brummelkamp, Bernards et al. 2002), under the control of the RNA polymerase III H1 gene promoter. siRNA expression constructs were transiently transfected MTE 4-14 transfectants, and cell growth was measured. siRNA-targeted transcript levels were quantified by real-time PCR. Negative control siRNAs directed towards irrelevant targets were used; these were chosen after extensive testing for lack of off-target influence on cell growth.

[2] = tested on: metastatic triple-negative breast cancer (TNBC); settings: patients with metastatic TNBC; cited from earlier work
[3] = tested on: MTE 4-14 cells; assay: In vitro growth of MTE 4-14 transfectants upon siRNA-mediated inhibition; assay type: cell-based, murine
Procedure: C. In vitro growth curves of MTE 4-14 cells transfected with the empty vector, wtTrop-2 or R87A-T88A Trop-2 upon ADAM10 (upper graphs, black,), MMP9 (lower graphs, black,) or control (human CD133, gray), siRNA-mediated inhibition. Bars: SEM. The p value for the only significant difference (ANOVA analysis) is indicated. Stars indicate post-hoc Bonferroni's t test p values (*≤0.05, **≤0.001).
Cell transfectants were seeded at 1.5−3.0×10^3 cells/well in 96-well plates (five replica wells per data point). Cell numbers were quantified by staining with crystal violet. Cell numbers were normalized against a standard reference curve of two-fold serially diluted cell samples.
as §1, with “Negative control siRNAs directed towards irrelevant targets were used; these were chosen after extensive testing for lack of off-target influence on cell growth.” left out

[4] = biological target: T2, Trop-2 (wild-type human Trop-2, NCBI accession number NP_002344.2)
T2 chain: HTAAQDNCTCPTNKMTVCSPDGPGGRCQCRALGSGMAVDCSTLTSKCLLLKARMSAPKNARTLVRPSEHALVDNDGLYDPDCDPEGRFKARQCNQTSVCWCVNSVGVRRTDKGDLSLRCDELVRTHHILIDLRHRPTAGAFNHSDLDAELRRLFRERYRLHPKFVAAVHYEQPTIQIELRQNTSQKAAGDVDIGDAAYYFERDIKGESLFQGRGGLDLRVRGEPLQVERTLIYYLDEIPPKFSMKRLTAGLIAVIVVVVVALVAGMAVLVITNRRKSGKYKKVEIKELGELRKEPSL

Q: What does the source list for `CNC(=O)[C@@H](NC(=O)[C@H](CCCc1ccccc1)[C@H](C)N(O)C=O)C(C)(C)C` [G1254023X]?
A: effect on Trop-2 processing [1]: reduction in Trop-2 processing; minimum concentration found to be effective in inhibiting Trop-2 cleavage [1]: 10 µM; concentration found effective (up to) [1]: up to 20 μM

Q: Which “effect on Trop-2 processing” value [1] does the source give for `CNC(=O)[C@H](Cc1c[nH]c2ccccc12)NC(=O)[C@@H](CC(=O)NO)CC(C)C` [GM6001] here?
A: reduction in Trop-2 processing

Q: What about the “minimum concentration found to be effective in inhibiting Trop-2 cleavage” value [1] of the same molecule?
A: 6.5 to 13 µM

Q: And the “concentration found effective (up to)” value [1]?
A: up to 50 μM

Q: Which efficacy in patients [2] does the source give for Sacituzumab govitecan-hziy here?
A: effective

B1: ADAM10 siRNA: siRNA targeting murine ADAM10 (NM_007399.3, nt 292-309), SEQ ID NO: 57/58, expressed from pSUPER (nucleic acid, listed as Mus musculus)
chain 1: GATCCCCAGACATTATGAAGGATTATTTCAAGAGAATAATCCTTCATAATGTCTTTTTTGGAAA
chain 2: AGCTTTTCCAAAAAAGACATTATGAAGGATTATTCTCTTGAAATAATCCTTCATAATGTCTGGG
Q: Which “effect on Trop-2 processing” value [1] does the source give for B1 here?
A: inhibited Trop-2 processing

Q: What about the “effect on in vitro growth of R87A-T88A or empty vector transfectants” value ([3]; MTE 4-14 R87A-T88A or empty vector transfectants) of the same molecule?
A: no effect

Q: What about the “effect on in vitro growth of wtTrop-2 transfectants” value ([3]; MTE 4-14 wtTrop-2 transfectants) of the same molecule?
A: overrides Trop-2 dependent growth stimulus

B2: murine ADAM10 (endogenous in MTE 4-14 cells) (protein)
chain: T1 sequence (O35598 215-749)
Q: With B2 as the molecule, how does the “Trop-2 processing (Western blot) after ADAM10 gene expression silencing by specific siRNAs” value [4] read?
A: Trop-2 processing was virtually abolished following ADAM10 silencing

B3: siRNAs targeting MMP9: control siRNA targeting murine MMP9 (NM_013599, nt 1780-1798), SEQ ID NO: 59/60 (nucleic acid, listed as Mus musculus)
chain 1: GATCCCCCCGCAGACCAAGAGGGTTTTTCAAGAGAAAACCCTCTTGGTCTGCGGTTTTTGGAAA
chain 2: AGCTTTTCCAAAAACCGCAGACCAAGAGGGTTTTCTCTTGAAAAACCCTCTTGGTCTGCGGGGG
Q: With B3 as the molecule, how does the “effect on cell proliferation” value ([3]; MTE 4-14 transfectants, siRNA targeting MMP9) read?
A: no effect on cell proliferation
